Experiments:
Format in all cases: biochemical
[1] = target: T1, Arg^172Lys GPR84-Cys^352Ile Gαi2 fusion protein (Homo sapiens, UniProt Q9NQS5, R172K); experiment: [35S]GTPγS binding, Arg172Lys mutant fusion protein
T1 construct: Cys352Ile Gαi2 (fusion partner, same polypeptide); expressed in transfected cells; host or cells: membranes of Flp-In T-REx 293 cells, doxycycline-induced

[2] = target: T2, Arg^172Ala GPR84-Cys^352Ile Gαi2 fusion protein (Homo sapiens, UniProt Q9NQS5, R172A); experiment: [35S]GTPγS binding, Arg172Ala mutant fusion protein
T2 construct: Cys352Ile Gαi2 (fusion partner, same polypeptide); expressed in transfected cells; host or cells: membranes of Flp-In T-REx 293 cells, doxycycline-induced
T2 sequence (Q9NQS5 2-396 R172A): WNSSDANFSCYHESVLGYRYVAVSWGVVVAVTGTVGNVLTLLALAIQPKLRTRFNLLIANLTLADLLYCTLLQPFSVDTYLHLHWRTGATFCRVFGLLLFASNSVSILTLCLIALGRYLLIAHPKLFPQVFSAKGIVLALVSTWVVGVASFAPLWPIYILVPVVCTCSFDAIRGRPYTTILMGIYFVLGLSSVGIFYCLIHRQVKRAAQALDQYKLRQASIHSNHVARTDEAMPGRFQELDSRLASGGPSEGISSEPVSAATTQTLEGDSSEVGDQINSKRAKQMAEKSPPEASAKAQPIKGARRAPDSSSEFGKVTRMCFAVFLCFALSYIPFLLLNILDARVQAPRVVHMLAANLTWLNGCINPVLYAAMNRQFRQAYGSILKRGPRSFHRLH
Description: To try to identify how a MCFA might interact with GPR84 we turned to homology modelling studies. Although GPR84 is not closely related to the other GPCRs that respond to either short chain (FFA2, FFA3) or long chain (FFA1, FFA4) fatty acids[8],[9], in each of the other cases the carboxylate of the fatty acid is co-ordinated by one or more arginine residues located at or near the extracellular surface[12]–[14]. […] As we have highlighted recently[9] GPR84 and the β2-adrenoceptor are only distantly related whilst, of the currently available atomic level GPCR structures, the orexin OX1 receptor[34] has highest overall sequence identity (31%) with GPR84. We, therefore, generated and employed a new homology model of GPR84 based on the transmembrane domain architecture of the OX1 receptor (Fig. 6). However, because ECL2 of GPR84 is very similar in sequence to that of rhodopsin (Fig. 6a), with 43% residue identity over this region, we incorporated this knowledge into the modelling process. In the resulting hybrid model (Fig. 6a) Arg^172 within ECL2 is pointing into the potential binding cavity within the helical bundle. This was not the case when Nikaido et al.,[3] employed the β2-adrenoceptor-based model, probably because the ECL2 sequences of the β2-adrenoceptor and GPR84 have no relatedness. […] To assess this we mutated Arg^172 to Ala within the setting of the GPR84-Cys^352Ile Gαi2 fusion protein. […] Equivalent results were obtained in studies in which the Arg^172Ala mutation was introduced into the FLAG-hGPR84-eYFP construct (Fig. 7b).
FLAG-humanGPR84-Gαi2 fusion proteins were constructed by replacing eYFP within the FLAG-humanGPR84-eYFP-pcDNA5/FRT/TO construct with sequence corresponding to Gαi2 or Cys^352Ile Gαi2 using NotI and XhoI restriction enzymes. Site-directed mutagenesis to generate point mutants of GPR84 was performed according to the QuikChange method (Stratagene, Cheshire, UK). The identity of all constructs was verified by nucleotide sequencing.
Initially, 5 μg of generated membrane protein was pre-incubated for 15 min at 25 °C in assay buffer (20 mM HEPES, 5 mM MgCl2; 160 mM NaCl; 1 μM GDP; 0.05% fatty acid-free bovine serum albumin; pH 7.5) containing the indicated ligand concentrations. […] The reaction was then initiated with addition of [^35S]GTPγS (50 nCi per tube), and the reaction was terminated after 45 minutes incubation at 30 °C by rapid filtration through GF/C glass filters using a 24-well Brandel cell harvester (Alpha Biotech, Glasgow, UK). Unbound radioligand was removed from filters by three washes with ice-cold phosphate buffered saline (pH 7.4) and filters were dried for 2–3 h at room temperature. Dried filters were added to 3 mL of Ultima Gold^TM XR (PerkinElmer Life Sciences, Beaconsfield, UK) and [^35S]GTPγS binding was determined by liquid scintillation spectrometry.

[3] = target: GPR84-Cys^352Ile Gαi2 fusion protein (Homo sapiens, UniProt Q9NQS5); experiment: [35S]GTPγS binding, membranes expressing pertussis toxin-resistant GPR84-Cys352Ile Gαi2 fusion; operational model of allosteric modulation
Chain of GPR84-Cys^352Ile Gαi2 fusion protein (Q9NQS5 whole entry, the tested form may be a part): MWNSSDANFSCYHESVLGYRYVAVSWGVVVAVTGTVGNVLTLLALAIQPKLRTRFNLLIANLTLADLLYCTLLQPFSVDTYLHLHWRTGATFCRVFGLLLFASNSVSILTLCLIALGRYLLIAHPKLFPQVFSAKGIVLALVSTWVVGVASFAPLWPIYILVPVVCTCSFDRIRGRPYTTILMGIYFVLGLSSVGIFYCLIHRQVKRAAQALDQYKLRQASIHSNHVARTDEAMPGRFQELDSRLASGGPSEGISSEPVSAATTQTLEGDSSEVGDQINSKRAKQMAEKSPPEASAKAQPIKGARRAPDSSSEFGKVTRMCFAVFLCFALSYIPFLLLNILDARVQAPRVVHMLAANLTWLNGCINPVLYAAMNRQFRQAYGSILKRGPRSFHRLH
Chain of GPR84-Cys^352Ile Gαi2 fusion protein (P04899 2-355 C352I, further chain): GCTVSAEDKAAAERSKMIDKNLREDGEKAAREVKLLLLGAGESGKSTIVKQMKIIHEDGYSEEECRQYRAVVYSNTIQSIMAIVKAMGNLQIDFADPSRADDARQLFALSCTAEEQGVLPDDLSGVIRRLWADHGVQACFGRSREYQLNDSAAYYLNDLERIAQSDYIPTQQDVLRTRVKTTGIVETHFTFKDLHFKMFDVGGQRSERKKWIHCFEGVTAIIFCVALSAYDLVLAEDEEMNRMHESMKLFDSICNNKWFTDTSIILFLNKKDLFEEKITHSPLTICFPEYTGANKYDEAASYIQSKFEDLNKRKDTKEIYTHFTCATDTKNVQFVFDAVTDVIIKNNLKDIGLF
Description: The only previous study[3] designed to explore the mode of binding of ligands to GPR84 employed a fusion protein[31],[32] in which the G protein Gαi1 was linked in-frame to the C-terminal tail of GPR84.
Membranes were generated from Flp-In T-REx HEK293 cells treated with 100 ng/mL doxycycline to induce expression of the receptor construct of interest. Cells were washed with ice-cold phosphate-buffered saline, removed from dishes by scraping and centrifuged at 3000 rpm for 5 min at 4 °C. Pellets were resuspended in TE buffer (10 mM Tris-HCl, 0.1 mM EDTA; pH 7.5) containing a protease inhibitor mixture (Roche Applied Science, West Sussex, UK) and homogenized with a 5 ml hand-held homogenizer. This material was centrifuged at 1500 rpm for 5 min at 4 °C and the supernatant was further centrifuged at 50000 rpm for 45 min at 4 °C. The resulting pellet was resuspended in TE buffer and protein content was assessed using a BCA protein assay kit (Pierce, Fisher Scientific, Loughborough, UK).
The reaction was then initiated with addition of [^35S]GTPγS (50 nCi per tube), and the reaction was terminated after 45 minutes incubation at 30 °C by rapid filtration through GF/C glass filters using a 24-well Brandel cell harvester (Alpha Biotech, Glasgow, UK). […] Dried filters were added to 3 mL of Ultima Gold^TM XR (PerkinElmer Life Sciences, Beaconsfield, UK) and [^35S]GTPγS binding was determined by liquid scintillation spectrometry.
To quantify the extent of allosteric interaction between pairs of ligands, data were analysed using an operational model of allosteric modulation described previously. The general version of this model can be depicted by the following equation: E=Em(τA[A](KB+αβ[B])+τB[B]KA)^n/([A]KB+KAKB+[B]KA+α[A][B])^n+(τA[A](KB+αβ[B])+τB[B]KA)^n where, E is the pharmacological effect, [A] and [B] are the orthosteric and allosteric compound concentrations at equilibrium, respectively; KA and KB are the equilibrium dissociation constants of the orthosteric and allosteric ligands respectively, denoting the binding affinities of the two ligands to the receptor; α is the binding cooperativity factor denoting the magnitude and direction of the allosteric effect on binding affinity of the orthosteric agonist to the receptor, β is the activation cooperativity factor representing the measure of the allosteric effect on orthosteric efficacy. τA and τB represent the intrinsic activity of the orthosteric and allosteric ligand, respectively. Em is the maximal possible system response and n denotes the slope factor of the transducer function. In case of global fitting of the allosterism data through this equation, Em and n values were always constrained and other parameters (KA, KB,τA, τB, α, β) were estimated.

[4] = agonist DIM, modulator compound-1

T1 sequence (Q9NQS5 2-396 R172K): as the sequence (Q9NQS5 2-396 R172A) above, with A171K counted along it

Structure (SMILES)	agonist response at Arg172Lys mutant [1]	agonist response at Arg172Ala mutant [2]	increase in potency of DIM to activate GPR84 at high levels of C10 or other MCFAs versus absence of C10 [3]	logα ([3]; agonist DIM, modulator C-10)	logβ ([3]; agonist DIM, modulator C-10)	logα [3, 4]	logβ [3, 4]	logα ([3]; agonist DIM, modulator embelin)	logβ ([3]; agonist DIM, modulator embelin)	allosteric effect on potency of C10 ([3]; co-addition of increasing concentrations of DIM, pertussis toxin-treated cells)	effect on measured potency of compound-1 and embelin ([3]; increasing concentrations of DIM)	response after pertussis toxin treatment ([3]; pertussis toxin-resistant fusion, pertussis toxin 24 h)	co-addition with compound-1 or embelin, effect on potency [3]	logα ([3]; agonist C-10, modulator DIM)	logβ ([3]; agonist C-10, modulator DIM)
c1ccc2c(Cc3c[nH]c4ccccc34)c[nH]c2c1 [DIM, 3,-3′-diindolylmethane]	without affecting response	retained full activity	~20 fold	1.3 ± 0.1	1.2 ± 0.05	1.8 ± 0.08	1.14 ± 0.03	1.12 ± 0.04	1.0 ± 0.03	positive allosteric modulator	enhancing the measured potency	unaffected			
CCCCCCCCCC(=O)O [C10, decanoic acid]	eliminated response	no response											did not result in modulation of the potency	1.4 ± 0.1	0.4 ± 0.07

From paper PMC5738391, “Three classes of ligands each bind to distinct sites on the orphan G protein-coupled receptor GPR84” (Scientific Reports, 2017)
